Common to all, as to format: cell-based
Assay [1] deals with rat α9α10 nAChR (wild type) (Rattus norvegicus, UniProt P43144+Q9JLB5). Put plainly: ACh-evoked currents, two-electrode voltage clamp in Xenopus laevis oocytes, wild-type receptor. As to conditions: −70 mV. The text has this: (§1) cDNAs encoding Gallus gallus (chick) or Rattus norvegicus (rat) α9 and α10 nAChR subunits were subcloned into a modified pGEMHE vector for expression studies in Xenopus laevis oocytes. Capped cRNAs were in vitro transcribed from linearized plasmid DNA templates using RiboMAX Large Scale RNA Production System (Promega, Madison, WI). Mutant subunits were produced using Quick Change XL II kit (Stratagene, La Jolla, CA). Amino acid sequences of rat and chicken α9, α10, and Torpedo α1 subunits were aligned using ClustalW (EMBL-EBI, Wellcome Genome Campus, Hinxton, Cambridgeshire). Residues were numbered according to the corresponding Torpedo α1 subunit mature protein ([Karlin, 2002]).
The maintenance of Xenopus laevis and the preparation and cRNA injection of stage V and VI oocytes have been described in detail elsewhere ([Verbitsky et al., 2000]). Typically, oocytes were injected with 50 nl of RNase-free water containing 0.01–1.0 ng of cRNA (at a 1:1 molar ratio when pairwise combined) and maintained in Barth’s solution at 18°C. […] Data were analyzed using Clampfit from the pClamp 6.1 software (Molecular Devices, Sunnyvale, CA). […]
Concentration-response curves were normalized to the maximal agonist response in each oocyte. […] Data were analyzed using Clampfit from the pClamp 6.1 software.
On the technique in general: Two-electrode voltage clamp holds a large cell at a set potential and records current.

Assay [2] has as its target chicken α9W55Tα10 receptor (Gallus gallus, UniProt Q9I8C7+Q9PTS8, W84T). Description: ACh-evoked currents, two-electrode voltage clamp in Xenopus laevis oocytes.
Excerpt: as §1
(§2) The maintenance of Xenopus laevis and the preparation and cRNA injection of stage V and VI oocytes have been described in detail elsewhere ([Verbitsky et al., 2000]). Typically, oocytes were injected with 50 nl of RNase-free water containing 0.01–1.0 ng of cRNA (at a 1:1 molar ratio when pairwise combined) and maintained in Barth’s solution at 18°C. Electrophysiological recordings were performed 2–6 days after cRNA injection under two-electrode voltage clamp with an Oocyte Clamp OC-725B or C amplifier (Warner Instruments Corp., Hamden, CT). Recordings were filtered at a corner frequency of 10 Hz using a 900BT Tunable Active Filter (Frequency Devices Inc., Ottawa, IL). Data acquisition was performed using a Patch Panel PP-50 LAB/1 interface (Warner Instruments Corp.) at a rate of 10 points per second. Both voltage and current electrodes were filled with 3 M KCl and had resistances of ∼1 MΩ. Data were analyzed using Clampfit from the pClamp 6.1 software (Molecular Devices, Sunnyvale, CA). During electrophysiological recordings, oocytes were continuously superfused (∼15 ml/min) with normal frog saline composed of: 115 mM NaCl, 2.5 mM KCl, 1.8 mM CaCl2, and 10 mM HEPES buffer, pH 7.2. ACh was added to the perfusion solution for application. Unless otherwise indicated, the membrane potential was clamped to −70 mV. To minimize activation of the endogenous Ca^2+ sensitive chloride current ([Elgoyhen et al., 2001]), all experiments were performed in oocytes incubated with the Ca^2+ chelator 1,2-bis(2-aminophenoxy)ethane-N,N,N′,N′-tetraacetic acid (acetoxymethyl ester) (100 µM) for 3 hours before electrophysiological recordings.
(§3) Concentration-response curves were normalized to the maximal agonist response in each oocyte. The mean and S.E.M. values of the responses are represented. Agonist concentration-response curves were iteratively fitted, using Prism 5 software (GraphPad Software Inc., La Jolla, CA), with the equation: I/Imax = A^nH/(A^nH + EC50^nH), where I is the peak inward current evoked by the agonist at concentration A; Imax is the current evoked by the concentration of the agonist eliciting a maximal response; EC50 is the concentration of the agonist inducing a half-maximal current response; and nH is the Hill coefficient. Data were analyzed using Clampfit from the pClamp 6.1 software.

Assay [3] addresses T1, rat double-mutant α9Y190Tα10Y190T receptors (Rattus norvegicus, UniProt P43144+Q9JLB5, Y216T/Y217T).
T1 construct: expressed in transfected cells; host or cells: Xenopus laevis oocytes (cRNA injection)
Described as above. As to conditions: 1 or 30 mM ACh, n = 8.
Excerpt: as §1, §2, §3

Assay [4] deals with T2, rat W55T double-mutant α9α10 receptors (Rattus norvegicus, UniProt P43144+Q9JLB5, W81T/W82T).
T2 construct: expressed in transfected cells; host or cells: Xenopus laevis oocytes (cRNA injection)
Described as above. As to conditions: 1 or 30 mM ACh, n = 15.
Excerpt: as §1, §2, §3

In assay [5] the target is chicken α9α10W55T receptor (Gallus gallus, UniProt Q9I8C7+Q9PTS8, W83T). Described as above.
Excerpt: as §1, §2, §3

In assay [6] the target is T3, chicken W55T double-mutant α9α10 receptors (Gallus gallus, UniProt Q9I8C7+Q9PTS8, W83T/W84T).
T3 construct: expressed in transfected cells; host or cells: Xenopus laevis oocytes (cRNA injection)
Described as above. As to conditions: 1 or 30 mM ACh, n = 10.
Excerpt: as §1, §2, §3

The structures appear in SMILES notation.

Consider `CC(=O)OCC[N+](C)(C)C` [ACh, acetylcholine], for which the entries for the “Imax (maximal evoked current)” value in assay [1], in assay [2] and in assay [5] were 298 ± 48 nA, 59 ± 8 nA and 159 ± 32 nA, respectively. Moreover, the EC50 (usually the concentration at which the effect is half-maximal) amounted to 357 ± 75 µM in assay [2] and 334 ± 13 µM in assay [5]. In addition, the “Response to ACh” value in assay [3] was “failed to respond”. In addition, the “Currents evoked by ACh” value in assay [4] and in assay [6] was “failed to evoke currents” each time.

The record behind these values is article PMC5325082 (Molecular Pharmacology, 2017).
